TGI data for ten molecules are collected here from PubChem BioAssay (NCI).

Test systems include MDA-MB-435; HS 578T breast; HCT-116 colon; HCT-15 colon; MALME-3M melanoma; PC-3 prostate; SK-MEL-28 melanoma; NCI-H226 lung; U251 CNS; SF-539 CNS; SN12C renal; KM12 colon; HCC-2998 colon.
What all share (assay): NCI tumour cell line growth inhibition, 48 h

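Five compound concentrations were applied to cells in 96-well plates for 48 hours; endpoints were derived by simple linear interpolation of the resulting dose-response curve. At the TGI there is no net growth.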

`Cc1ncc([N+](=O)[O-])n1CCNC(=O)Cn1ccnc1[N+](=O)[O-]`: the TGI with MDA-MB-435, in the test with HS 578T breast, in the test on HCT-116 colon, in the test with HCT-15 colon, in the test with MALME-3M melanoma and with PC-3 prostate was more than 100 µM throughout. Moreover, the TGI in the test on SK-MEL-28 melanoma, in the test with NCI-H226 lung, in the test on U251 CNS, in the test with SF-539 CNS, in the test on SN12C renal and in the test on KM12 colon was more than 100 µM in each case. The TGI in the test with HCC-2998 colon was more than 100 µM.
Regarding `CC(C)=CC[C@H]1C[C@@]2(CC=C(C)C)C(=O)/C(=C(/O)c3ccccc3)C(=O)[C@](CC=C(C)C)(C2=O)C1(C)C`, the TGI with MDA-MB-435 was found to be 26.2 µM; in the test with HS 578T breast, 59.6 µM; in the test with HCT-116 colon, 14.5 µM; with HCT-15 colon, 26.5 µM; in the test with MALME-3M melanoma it was 27.9 µM; in the test on PC-3 prostate, 19.3 µM. Besides, the TGI in the test on SK-MEL-28 melanoma amounted to 30.3 µM; in the test on NCI-H226 lung, 36.2 µM; in the test with U251 CNS it was 20.8 µM; with SF-539 CNS it was 48 µM; in the test on SN12C renal, 14.8 µM; in the test with KM12 colon it was 19.9 µM. The same molecule yielded a TGI in the test with HCC-2998 colon of 14.4 µM.
Take `COC(=O)/C=C/c1ccc2c(c1)[C@H](C(=O)OC)[C@@H](c1ccc(O)cc1)O2`: the TGI in the test on MDA-MB-435 is 16.2 µM; in the test on HS 578T breast, 96.4 µM; in the test with HCT-116 colon, more than 100 µM; with HCT-15 colon it was 47.3 µM; with MALME-3M melanoma, 80.6 µM; in the test on PC-3 prostate it was more than 100 µM. In addition, the TGI in the test on SK-MEL-28 melanoma is more than 100 µM; in the test with NCI-H226 lung, more than 100 µM; in the test on U251 CNS it was more than 100 µM; in the test with SF-539 CNS, more than 100 µM; in the test on SN12C renal it was more than 100 µM; in the test with KM12 colon, 88.1 µM. In the test with HCC-2998 colon, this molecule came in with a TGI of 59.4 µM.
For the molecule `COc1ccc(OC2OC(CO)C(O)C(O)C2O)cc1` (stereo not given), the TGI in the test with MDA-MB-435, with HS 578T breast, with HCT-116 colon, in the test with HCT-15 colon, with MALME-3M melanoma and in the test on PC-3 prostate was more than 100 µM throughout. The TGI in the test on SK-MEL-28 melanoma, in the test on NCI-H226 lung, in the test with U251 CNS, with SF-539 CNS, in the test with SN12C renal and in the test on KM12 colon was more than 100 µM throughout. The molecule further had a TGI with HCC-2998 colon of more than 100 µM.
On to `Cn1c(-c2cccs2)cc(-c2ccsc2)c1-c1cccs1`, for which the TGI in the test with MDA-MB-435, in the test with HS 578T breast, with HCT-116 colon, with HCT-15 colon, in the test on MALME-3M melanoma and with PC-3 prostate was more than 100 µM throughout. Also, the TGI with SK-MEL-28 melanoma, in the test on NCI-H226 lung, in the test on U251 CNS, with SF-539 CNS, in the test with SN12C renal and with KM12 colon was more than 100 µM throughout. Moreover, the TGI in the test on HCC-2998 colon is more than 100 µM.
Turning to `O=C1O/C(=C(/Cl)c2c3ccccc3cc3ccccc23)c2ccccc21`, the TGI with MDA-MB-435 was 58 µM; in the test on HS 578T breast, 59.8 µM; in the test with HCT-116 colon it was 9.58 µM; with HCT-15 colon it was more than 100 µM; in the test with MALME-3M melanoma, more than 100 µM; in the test with PC-3 prostate, more than 100 µM. The TGI in the test on SK-MEL-28 melanoma is more than 100 µM; with NCI-H226 lung, 73.6 µM; in the test on U251 CNS, more than 100 µM; with SF-539 CNS, 47.8 µM; in the test with SN12C renal, more than 100 µM; in the test with KM12 colon, 17.3 µM. The TGI with HCC-2998 colon is more than 100 µM.
Turning to `Cc1c(-c2ccccc2)c(C#N)c2nnn(C)c(=O)n12`, the TGI with MDA-MB-435, in the test on HS 578T breast, with HCT-116 colon, with HCT-15 colon, with MALME-3M melanoma and in the test on PC-3 prostate was more than 100 µM throughout. Besides, the TGI in the test on SK-MEL-28 melanoma, with NCI-H226 lung, with U251 CNS, in the test on SF-539 CNS, in the test with SN12C renal and in the test on KM12 colon was more than 100 µM in each case. The molecule further came in with a TGI in the test on HCC-2998 colon of more than 100 µM.
In the case of `N/N=C(/CC(O)(C(F)(F)F)C(F)(F)F)c1ccccc1`, the TGI with MDA-MB-435, in the test on HS 578T breast, with HCT-116 colon, in the test with HCT-15 colon, in the test with MALME-3M melanoma and with PC-3 prostate was more than 10 µM throughout. The TGI in the test with SK-MEL-28 melanoma, in the test on NCI-H226 lung, with U251 CNS, in the test on SF-539 CNS, in the test on SN12C renal and in the test on KM12 colon was more than 10 µM throughout. In the test on HCC-2998 colon, this molecule yielded a TGI of more than 10 µM.
For `COCCNC1CCC(=O)c2[nH]c3ccccc3c21` (stereo not given), the TGI in the test with MDA-MB-435, in the test with HS 578T breast, in the test with HCT-116 colon, with HCT-15 colon, in the test with MALME-3M melanoma and with PC-3 prostate was more than 100 µM each time. Also, the TGI with SK-MEL-28 melanoma, in the test with NCI-H226 lung, in the test with U251 CNS, in the test with SF-539 CNS, with SN12C renal and with KM12 colon was more than 100 µM throughout. This molecule showed a TGI in the test on HCC-2998 colon of more than 100 µM.
On to `CC[C@H]1C=CCC[C@@]2(C[C@@H]3CC[C@H]4[C@@H](C(=O)OCCCCCCCCCCCCCCCC(=O)N(CCCNC(C)=O)C[C@H](CCNC(C)=O)OC(C)=O)[C@@]5(CCC[C@@H](C)O5)NC(=[N+]34)N2)O1`, for which the TGI with MDA-MB-435 is 3 µM; in the test with HS 578T breast, 4.83 µM; with HCT-116 colon it was 2.92 µM; with HCT-15 colon, 3.17 µM; in the test on MALME-3M melanoma, 2.99 µM; in the test with PC-3 prostate, 2.26 µM. In addition, the TGI in the test on SK-MEL-28 melanoma amounted to 2.63 µM; in the test with NCI-H226 lung, 2.94 µM; in the test with U251 CNS, 2.11 µM; in the test on SF-539 CNS it was 2.87 µM; in the test with SN12C renal, 3.54 µM; with KM12 colon it was 2.67 µM. In the test with HCC-2998 colon, this molecule registered a TGI of 2.62 µM.
